Reference: patent publication US20230146395A1, “Substituted Pyrimidines and Uses Thereof” (Verge Analytics, Inc., priority 2020, published 2023)

What follows are molecules tested against T1, Full length human recombinant PIKFYVE (Homo sapiens, UniProt Q9Y2I7) (assay: Inhibition of PIKfyve (microfluidic electrophoresis kinase assay, PI3P/PS substrate)). Details: 12 concentrations.
T1 construct: Full length human recombinant PIKFYVE; purchased Carna Biosciences (Kobe, Japan); host or cells: baculovirus expression system
T1 sequence (Q9Y2I7 whole entry): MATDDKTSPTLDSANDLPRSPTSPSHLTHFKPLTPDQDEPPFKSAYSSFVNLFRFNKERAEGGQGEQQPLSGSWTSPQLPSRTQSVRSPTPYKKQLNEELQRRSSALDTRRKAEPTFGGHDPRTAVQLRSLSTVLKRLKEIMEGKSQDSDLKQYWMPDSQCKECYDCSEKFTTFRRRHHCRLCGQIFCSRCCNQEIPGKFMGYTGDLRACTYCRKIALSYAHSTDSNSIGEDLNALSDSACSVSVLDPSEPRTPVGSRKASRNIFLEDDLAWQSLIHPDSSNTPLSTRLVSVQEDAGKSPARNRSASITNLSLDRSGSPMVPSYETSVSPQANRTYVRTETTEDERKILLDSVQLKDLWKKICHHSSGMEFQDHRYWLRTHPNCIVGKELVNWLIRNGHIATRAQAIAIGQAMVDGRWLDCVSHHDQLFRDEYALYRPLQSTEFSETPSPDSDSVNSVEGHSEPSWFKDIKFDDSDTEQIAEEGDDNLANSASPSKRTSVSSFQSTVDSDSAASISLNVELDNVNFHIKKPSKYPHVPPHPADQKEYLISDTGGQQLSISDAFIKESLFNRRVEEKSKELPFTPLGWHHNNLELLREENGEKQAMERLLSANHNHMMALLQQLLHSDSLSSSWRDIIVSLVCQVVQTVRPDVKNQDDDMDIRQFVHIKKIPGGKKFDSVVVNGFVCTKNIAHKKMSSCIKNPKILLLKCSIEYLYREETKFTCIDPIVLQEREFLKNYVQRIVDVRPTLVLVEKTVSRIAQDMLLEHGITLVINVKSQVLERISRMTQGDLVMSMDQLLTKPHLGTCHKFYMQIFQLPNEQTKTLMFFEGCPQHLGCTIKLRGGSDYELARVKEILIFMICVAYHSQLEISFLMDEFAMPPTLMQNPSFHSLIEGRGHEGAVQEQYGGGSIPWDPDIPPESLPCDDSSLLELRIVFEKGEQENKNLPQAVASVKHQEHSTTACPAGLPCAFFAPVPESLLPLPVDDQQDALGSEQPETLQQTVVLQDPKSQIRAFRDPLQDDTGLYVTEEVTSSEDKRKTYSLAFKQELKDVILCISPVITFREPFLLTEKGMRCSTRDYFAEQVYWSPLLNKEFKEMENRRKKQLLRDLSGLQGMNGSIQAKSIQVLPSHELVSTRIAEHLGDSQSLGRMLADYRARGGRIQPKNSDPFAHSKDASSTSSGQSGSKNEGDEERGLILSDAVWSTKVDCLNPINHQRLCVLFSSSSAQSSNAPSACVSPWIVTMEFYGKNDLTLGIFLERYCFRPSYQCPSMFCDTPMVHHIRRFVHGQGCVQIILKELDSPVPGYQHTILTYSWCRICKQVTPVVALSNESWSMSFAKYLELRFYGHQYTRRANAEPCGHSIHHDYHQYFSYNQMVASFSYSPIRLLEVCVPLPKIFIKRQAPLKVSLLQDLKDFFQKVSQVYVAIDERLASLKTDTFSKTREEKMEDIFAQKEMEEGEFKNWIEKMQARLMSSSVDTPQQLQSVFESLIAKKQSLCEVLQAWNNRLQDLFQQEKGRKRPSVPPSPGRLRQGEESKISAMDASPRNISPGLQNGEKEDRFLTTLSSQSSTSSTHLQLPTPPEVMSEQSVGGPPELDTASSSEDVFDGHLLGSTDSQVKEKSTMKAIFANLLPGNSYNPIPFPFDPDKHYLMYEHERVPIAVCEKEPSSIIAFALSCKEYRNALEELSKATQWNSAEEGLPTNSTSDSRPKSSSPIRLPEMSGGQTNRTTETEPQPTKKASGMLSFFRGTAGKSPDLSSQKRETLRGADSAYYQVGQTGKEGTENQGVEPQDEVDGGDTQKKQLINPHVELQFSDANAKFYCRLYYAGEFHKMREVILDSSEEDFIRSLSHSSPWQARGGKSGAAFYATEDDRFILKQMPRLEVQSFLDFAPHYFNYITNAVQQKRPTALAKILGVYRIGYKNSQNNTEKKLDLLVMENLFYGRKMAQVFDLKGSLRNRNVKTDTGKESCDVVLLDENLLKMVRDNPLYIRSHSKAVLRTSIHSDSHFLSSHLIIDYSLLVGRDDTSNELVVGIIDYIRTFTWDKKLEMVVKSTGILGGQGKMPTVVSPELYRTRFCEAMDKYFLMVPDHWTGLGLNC
Type: biochemical
Procedure, shortened: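 GST-tagged full-length human PIKFYVE (baculovirus; 2 nM) with fluorescent PI3P/PS (1 μM PI3P) and […] in pH 7.5 HEPES with Mg2+/Mn2+, 1% DMSO, 3 h at room temperature. PI(3,5)P product/substrate ratio read by microfluidic electrophoresis; 12-point % inhibition versus no-enzyme and DMSO controls.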

SMILES	IC50
Cn1ccc(-c2cc3nc(-n4cc(-c5cccc(Cl)c5)cn4)nc(N4CCOCC4)c3o2)n1 [Compound 192, 2-(4-(3-chlorophenyl)-1H-pyrazol-1-yl)-6-(1-methyl-1H-pyrazol-3-yl)-4-morpholinofuro[3,2-d]pyrimidine]	21.7 nM
Cn1ccc(-c2cc3nc(-n4ccc(-c5cccc(Cl)c5)n4)nc(N4CCOCC4)c3o2)n1 [Compound 193, 2-[3-(3-chlorophenyl)pyrazol-1-yl]-6-(1-methylpyrazol-3-yl)-4-morpholino-furo[3,2-d]pyrimidine]	24.6 nM
Cn1ccc(-c2cc3nc(-n4cc(Br)cn4)nc(N4CCOCC4)c3o2)n1 [Compound 194, 2-(4-bromopyrazol-1-yl)-6-(1-methylpyrazol-3-yl)-4-morpholino-furo[3,2-d]pyrimidine]	269 nM
Cn1ccc(-c2cc3nc(-n4ccc(Br)n4)nc(N4CCOCC4)c3o2)n1 [Compound 195, 2-(3-bromopyrazol-1-yl)-6-(1-methylpyrazol-3-yl)-4-morpholino-furo[3,2-d]pyrimidine]	907 nM
C=CC(=O)NCCn1nc(-c2cc3nc(-n4cc(-c5cccc(C)c5)cn4)nc(N4CCOCC4)c3o2)cc1C [Compound 196, N-[2-[5-methyl-3-[4-morpholino-2-[4-(m-tolyl)pyrazol-1-yl]furo[3,2-d]pyrimidin-6-yl]pyrazol-1-yl]ethyl]prop-2-enamide]	0.9 nM
CC(=O)NCCn1nc(-c2cc3nc(-n4cc(-c5cccc(C)c5)cn4)nc(N4CCOCC4)c3o2)cc1C [Compound 197, N-[2-[5-methyl-3-[4-morpholino-2-[4-(m-tolyl)pyrazol-1-yl]furo[3,2-d]pyrimidin-6-yl]pyrazol-1-yl]ethyl]acetamide]	0.7 nM
Cc1cccc(-c2cnn(-c3nc(N4CCOCC4)c4oc(-c5cc(C)n(CCNC(=O)CCl)n5)cc4n3)c2)c1 [Compound 198, 2-chloro-N-[2-[5-methyl-3-[4-morpholino-2-[4-(m-tolyl)pyrazol-1-yl]furo[3,2-d]pyrimidin-6-yl]pyrazol-1-yl]ethyl]acetamide]	0.6 nM
COc1cccc(-c2ccn(-c3nc(N4CCOCC4)c4oc(-c5ccccn5)cc4n3)n2)c1 [Compound 199, 2-[3-(3-methoxyphenyl)pyrazol-1-yl]-4-morpholino-6-(2-pyridyl)furo[3,2-d]pyrimidine]	36.8 nM
Cc1cncc(-c2ccn(-c3nc(N4CCOCC4)c4oc(-c5ccccn5)cc4n3)n2)c1 [Compound 200, 2-[3-(5-methyl-3-pyridyl)pyrazol-1-yl]-4-morpholino-6-(2-pyridyl)furo[3,2-d]pyrimidine]	3080 nM
Cc1cccc(-c2cnn(-c3nc(N4CCOCC4)c4oc(-c5ccn(C)n5)cc4n3)c2)c1 [Compound 201, 6-(1-methylpyrazol-3-yl)-4-morpholino-2-[4-(m-tolyl)pyrazol-1-yl]furo[3,2-d]pyrimidine]	0.5 nM
Cc1cccc(-c2cnn(-c3nc(N4CCOCC4)c4oc(-c5cc(C)n(CCN6C(=O)C=CC6=O)n5)cc4n3)c2)c1 [Compound 202, 1-[2-[5-methyl-3-[4-morpholino-2-[4-(m-tolyl)pyrazol-1-yl]furo[3,2-d]pyrimidin-6-yl]pyrazol-1-yl]ethyl]pyrrole-2,5-dione]	1.4 nM
Cc1cccc(-c2ccn(-c3nc(N4CCOCC4)c4oc(-c5nccs5)cc4n3)n2)c1 [Compound 203, 4-morpholino-2-[3-(m-tolyl)pyrazol-1-yl]-6-thiazol-2-yl-furo[3,2-d]pyrimidine]	1.9 nM
Cc1cccc(-c2ccn(-c3nc(N4CCOCC4)c4oc(-c5cc(C)no5)cc4n3)n2)c1 [Compound 204, 6-(3-methylisoxazol-5-yl)-4-morpholino-2-(3-(m-tolyl)-1H-pyrazol-1-yl)furo[3,2-d]pyrimidine]	2.1 nM

More lines, now with the values ahead:

IC50	SMILES
1.3 nM	Cc1cccc(-c2ccn(-c3nc(N4CCOCC4)c4oc(-c5cnn(C)c5)cc4n3)n2)c1 [Compound 205, 6-(1-methylpyrazol-4-yl)-4-morpholino-2-[3-(m-tolyl)pyrazol-1-yl]furo[3,2-d]pyrimidine]
7 nM	Cc1cc(-c2cc3nc(-n4ccc(-c5ccccc5)n4)nc(N4CCOCC4)c3o2)on1 [Compound 206, 6-(3-methylisoxazol-5-yl)-4-morpholino-2-(3-phenylpyrazol-1-yl)furo[3,2-d]pyrimidine]
6.6 nM	c1ccc(-c2ccn(-c3nc(N4CCOCC4)c4oc(-c5nccs5)cc4n3)n2)cc1 [Compound 207, 4-morpholino-2-(3-phenylpyrazol-1-yl)-6-thiazol-2-yl-furo[3,2-d]pyrimidine]
8.2 nM	Cn1cc(-c2cc3nc(-n4ccc(-c5ccccc5)n4)nc(N4CCOCC4)c3o2)cn1 [Compound 208, 6-(1-methylpyrazol-4-yl)-4-morpholino-2-(3-phenylpyrazol-1-yl)furo[3,2-d]pyrimidine]
9.8 nM	c1ccc(-c2ccn(-c3nc(N4CCOCC4)c4oc(-c5cn[nH]c5)cc4n3)n2)cc1 [Compound 209, 4-morpholino-2-(3-phenylpyrazol-1-yl)-6-(1H-pyrazol-4-yl)furo[3,2-d]pyrimidine]
3.8 nM	Cc1cccc(-c2ccn(-c3nc(N4CCOCC4)c4oc(-c5cc(C)ns5)cc4n3)n2)c1 [Compound 210, 6-(3-methylisothiazol-5-yl)-4-morpholino-2-[3-(m-tolyl)pyrazol-1-yl]furo[3,2-d]pyrimidine]
20.8 nM	Cc1cc(-c2cc3nc(-n4ccc(-c5ccccc5)n4)nc(N4CCOCC4)c3o2)sn1 [Compound 211, 6-(3-methylisothiazol-5-yl)-4-morpholino-2-(3-phenylpyrazol-1-yl)furo[3,2-d]pyrimidine]
2.3 nM	Cc1cccc(-c2ccn(-c3nc(N4CCOCC4)c4oc(-c5cnc(C)[nH]5)cc4n3)n2)c1 [Compound 212, 6-(2-methyl-1H-imidazol-5-yl)-4-morpholino-2-(3-(m-tolyl)-1H-pyrazol-1-yl)furo[3,2-d]pyrimidine]
10.6 nM	Cc1ncc(-c2cc3nc(-n4ccc(-c5ccccc5)n4)nc(N4CCOCC4)c3o2)[nH]1 [Compound 213, 6-(2-methyl-1H-imidazol-5-yl)-4-morpholino-2-(3-phenylpyrazol-1-yl)furo[3,2-d]pyrimidine]
44.1 nM	c1ccc(-c2ccn(-c3nc(N4CCOCC4)c4oc(-c5ncco5)cc4n3)n2)cc1 [Compound 214, 4-morpholino-6-oxazol-2-yl-2-(3-phenylpyrazol-1-yl)furo[3,2-d]pyrimidine]
0.2 nM	[2H]C([2H])([2H])c1cccc(-c2cnn(-c3nc(N4CCOCC4)c4oc(-c5ccn(C)n5)cc4n3)c2)c1 [Compound 215, 6-(1-methylpyrazol-3-yl)-4-morpholino-2-[4-[3-(trideuteriomethyl)phenyl]pyrazol-1-yl]furo[3,2-d]pyrimidine]
0.8 nM	[2H]C([2H])([2H])c1cccc(-c2ccn(-c3nc(N4CCOCC4)c4oc(-c5ccn(C)n5)cc4n3)n2)c1 [Compound 216, 6-(1-methylpyrazol-3-yl)-4-morpholino-2-[3-[3-(trideuteriomethyl)phenyl]pyrazol-1-yl]furo[3,2-d]pyrimidine]
2.2 nM	[2H]C([2H])([2H])c1cccc(-c2ccn(-c3nc(N4CCOCC4)c4oc(-c5ccccn5)cc4n3)n2)c1 [Compound 217, 4-morpholino-6-(2-pyridyl)-2-[3-[3-(trideuteriomethyl)phenyl]pyrazol-1-yl]furo[3,2-d]pyrimidine]
9.1 nM	Cc1cccc(-c2ccn(-c3nc(N4CCOCC4)c4oc(-c5ncco5)cc4n3)n2)c1 [Compound 218, 4-morpholino-2-[3-(m-tolyl)pyrazol-1-yl]-6-oxazol-2-yl-furo[3,2-d]pyrimidine]
0.4 nM	Cc1cccc(-c2ccn(-c3nc(N4CCOCC4)c4oc(-c5cn[nH]c5)cc4n3)n2)c1 [Compound 219, 4-morpholino-2-[3-(m-tolyl)pyrazol-1-yl]-6-(1H-pyrazol-4-yl)furo[3,2-d]pyrimidine]
16.3 nM	O=C(NC1CCOCC1)c1cc2nc(-n3ccc(-c4cccc(Br)c4)n3)nc(N3CCOCC3)c2o1 [Compound 220, 2-[3-(3-bromophenyl)pyrazol-1-yl]-4-morpholino-N-tetrahydropyran-4-yl-furo[3,2-d]pyrimidine-6-carboxamide]
3.4 nM	COc1cccc(-c2ccn(-c3nc(N4CCOCC4)c4oc(C(=O)NC5CCOCC5)cc4n3)n2)c1 [Compound 221, 2-[3-(3-methoxyphenyl)pyrazol-1-yl]-4-morpholino-N-tetrahydropyran-4-yl-furo[3,2-d]pyrimidine-6-carboxamide]
